Results: patent US20240208992A1, “MACROCYCLES AS CFTR MODULATORS” (Idorsia Pharmaceuticals Ltd, priority 2021, published 2024)

Biological target: human F508del-CFTR (Homo sapiens, UniProt P13569, DEL508-508)
Experiment: F508del-CFTR cell surface expression (corrector activity), DiscoveRx ß-galactosidase complementation chemiluminescence assay in recombinant U2OS cell line;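 also: U2OS cells co-expressing ProLink-tagged F508del-CFTR and a membrane-anchored enzyme acceptor, where more surface CFTR restores β-galactosidase activity measured by chemiluminescence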
Conditions: for EC50: EC50, F508del-CFTR cell surface expression, U2OS cells, 16h compound incubation, geomean values; for Emax: U2OS, in relation to Emax of corrector lumacaftor (=100%), arithmetic mean values

Chain of human F508del-CFTR (P13569 with tags, fused parts or gaps DEL508-508): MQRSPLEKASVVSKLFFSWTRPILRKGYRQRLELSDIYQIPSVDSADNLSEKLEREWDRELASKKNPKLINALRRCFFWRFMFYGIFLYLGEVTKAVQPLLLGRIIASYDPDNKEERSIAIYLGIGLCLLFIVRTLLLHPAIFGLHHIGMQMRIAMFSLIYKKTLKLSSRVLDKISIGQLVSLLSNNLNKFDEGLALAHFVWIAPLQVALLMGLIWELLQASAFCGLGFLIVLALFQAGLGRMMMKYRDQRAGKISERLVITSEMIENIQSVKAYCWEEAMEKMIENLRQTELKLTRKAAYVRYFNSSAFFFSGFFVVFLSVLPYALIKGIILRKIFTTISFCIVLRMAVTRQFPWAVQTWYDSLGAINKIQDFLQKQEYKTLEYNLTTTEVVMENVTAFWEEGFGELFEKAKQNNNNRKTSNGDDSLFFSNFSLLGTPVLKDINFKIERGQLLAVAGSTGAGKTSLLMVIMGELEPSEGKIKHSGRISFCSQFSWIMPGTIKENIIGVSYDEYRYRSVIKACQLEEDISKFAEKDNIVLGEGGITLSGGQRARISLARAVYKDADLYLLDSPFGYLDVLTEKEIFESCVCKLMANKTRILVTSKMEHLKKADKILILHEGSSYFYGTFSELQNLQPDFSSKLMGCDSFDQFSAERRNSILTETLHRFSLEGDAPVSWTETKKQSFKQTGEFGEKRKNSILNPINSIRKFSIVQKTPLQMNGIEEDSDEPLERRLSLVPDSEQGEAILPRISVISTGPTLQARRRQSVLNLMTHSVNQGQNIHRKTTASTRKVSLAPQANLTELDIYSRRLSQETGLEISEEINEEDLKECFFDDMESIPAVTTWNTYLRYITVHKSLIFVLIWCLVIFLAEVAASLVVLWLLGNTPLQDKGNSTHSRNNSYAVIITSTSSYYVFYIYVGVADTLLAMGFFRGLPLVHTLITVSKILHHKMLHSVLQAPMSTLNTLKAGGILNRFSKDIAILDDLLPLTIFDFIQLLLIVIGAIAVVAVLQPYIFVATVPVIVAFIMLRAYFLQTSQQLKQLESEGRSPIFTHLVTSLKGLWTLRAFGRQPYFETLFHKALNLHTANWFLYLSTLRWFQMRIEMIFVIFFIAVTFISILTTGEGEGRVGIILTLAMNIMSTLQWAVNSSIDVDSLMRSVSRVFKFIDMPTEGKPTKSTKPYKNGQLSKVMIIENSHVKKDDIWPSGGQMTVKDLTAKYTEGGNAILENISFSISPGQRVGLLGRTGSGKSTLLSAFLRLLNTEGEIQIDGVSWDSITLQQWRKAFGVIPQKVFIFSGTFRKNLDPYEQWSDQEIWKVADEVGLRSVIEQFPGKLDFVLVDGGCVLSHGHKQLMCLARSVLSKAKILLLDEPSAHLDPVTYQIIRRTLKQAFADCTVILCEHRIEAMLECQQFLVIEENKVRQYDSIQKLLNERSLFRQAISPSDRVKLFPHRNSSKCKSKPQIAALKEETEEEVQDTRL

Compound	EC50 [nM]	Emax [%]
COc1cccc(CCNC(=O)[C@@H]2CC(=O)N(C)[C@@H](CC(C)C)C(=O)N(C)C3(CC3)C(=O)N[C@H](Cc3ccccc3)COc3ccc4cccnc4c3C(=O)N2)c1 [Example 471, (9′R,15′S,19′S)-9′-benzyl-15′-isobutyl-N-(3-methoxyphenethyl)-13′,16′-dimethyl-11′,14′,17′,21′-tetraoxo-8′,9′,10′,11′,14′,15′,16′,17′,18′,19′,20′,21′-dodecahydro-13′H-spiro[cyclopropane-1,12′-[1]oxa[4,7,10,14]tetraazacycloheptadecino[17,16-h]quinoline]-19′-carboxamide]	981	278
CC(C)C[C@H]1C(=O)N2CCCC[C@@H]2C(=O)N[C@H](Cc2ccccc2)COc2ccc3ncccc3c2C(=O)N[C@H](C(=O)NCCc2ccc(-n3nccn3)cc2)CC(=O)N1C [Example 472, (9S,13S,19aR,22R)-N-(4-(2H-1,2,3-triazol-2-yl)phenethyl)-22-benzyl-13-isobutyl-12-methyl-7,11,14,20-tetraoxo-7,8,9,10,11,12,13,14,17,18,19,19a,20,21,22,23-hexadecahydro-16H-pyrido[2′,1′:6,7][1]oxa[4,7,10,14]tetraazacycloheptadecino[16,17-f]quinoline-9-carboxamide]	284	239
CC(C)C[C@H]1C(=O)N2CCCC[C@H]2C(=O)N[C@H](Cc2ccccc2)COc2ccc3ncccc3c2C(=O)N[C@H](C(=O)NCCc2ccc(-n3nccn3)cc2)CC(=O)N1C [Example 473, (9S,13S,19aS,22R)-N-(4-(2H-1,2,3-triazol-2-yl)phenethyl)-22-benzyl-13-isobutyl-12-methyl-7,11,14,20-tetraoxo-7,8,9,10,11,12,13,14,17,18,19,19a,20,21,22,23-hexadecahydro-16H-pyrido[2′,11:6,7][1]oxa[4,7,10,14]tetraazacycloheptadecino[16,17-f]quinoline-9-carboxamide]	585	119
Cc1cc(CCNC(=O)[C@@H]2CC(=O)N(C)[C@@H](CC(C)C)C(=O)N3CCCC[C@@H]3C(=O)N[C@H](Cc3ccccc3)COc3ccc4ncccc4c3C(=O)N2)on1 [Example 474, (9S,13S,19aR,22R)-22-benzyl-13-isobutyl-12-methyl-N-(2-(3-methylisoxazol-5-yl)ethyl)-7,11,14,20-tetraoxo-7,8,9,10,11,12,13,14,17,18,19,19a,20,21,22,23-hexadecahydro-16H-pyrido[2′,11:6,7][1]oxa[4,7,10,14]tetraazacycloheptadecino[16,17-f]quinoline-9-carboxamide]	478	359
COc1nccc2c1C(=O)N[C@H](C(=O)NCCc1c(F)cccc1F)CC(=O)N(C)[C@@H](CC(C)C)C(=O)N1CCCC[C@@H]1C(=O)N[C@H](Cc1ccccc1)CO2 [Example 478, (7S,11S,17aR,20R)-20-benzyl-N-(2,6-difluorophenethyl)-11-isobutyl-4-methoxy-10-methyl-5,9,12,18-tetraoxo-5,6,7,8,9,10,11,12,15,16,17,17a,18,19,20,21-hexadecahydro-14H-dipyrido[2,1-f:3′,4′-p][1]oxa[4,7,10,14]tetraazacycloheptadecine-7-carboxamide]	168	337
Cc1nc2ccc3c(c2o1)C(=O)N[C@H](C(=O)NCCc1c(F)cccc1F)CC(=O)N(C)[C@@H](CC(C)C)C(=O)N1CCCC[C@@H]1C(=O)N[C@H](Cc1ccccc1)CO3 [Example 482, (8S,12S,18aR,21R)-21-benzyl-N-(2,6-difluorophenethyl)-12-isobutyl-4,11-dimethyl-6,10,13,19-tetraoxo-6,7,8,9,10,11,12,13,16,17,18,18a,19,20,21,22-hexadecahydro-15H-oxazolo[4′,5′:5,6]benzo[1,2-p]pyrido[2,1-f][1]oxa[4,7,10,14]tetraazacycloheptadecine-8-carboxamide]	414	247
COc1nccc2c1C(=O)N[C@H](C(=O)NCCc1noc(C3CC3)n1)CC(=O)N(C)[C@@H](CC(C)C)C(=O)N1CCCC[C@@H]1C(=O)N[C@H](Cc1ccccc1)CO2 [Example 483, (7S,11S,17aR,20R)-20-benzyl-N-(2-(5-cyclopropyl-1,2,4-oxadiazol-3-yl)ethyl)-11-isobutyl-4-methoxy-10-methyl-5,9,12,18-tetraoxo-5,6,7,8,9,10,11,12,15,16,17,17a,18,19,20,21-hexadecahydro-14H-dipyrido[2,1-f:3′,4′-p][1]oxa[4,7,10,14]tetraazacycloheptadecine-7-carboxamide]	517	311
CC(C)C[C@H]1C(=O)N2CCCC[C@@H]2C(=O)N[C@H](Cc2ccccc2)COc2nc3ccccn3c2C(=O)N[C@H](C(=O)NCCc2c(F)cccc2F)CC(=O)N1C [Example 484, (7S,11S,22R,24aR)-22-benzyl-N-(2,6-difluorophenethyl)-7-isobutyl-8-methyl-6,9,13,24-tetraoxo-1,3,4,6,7,8,9,10,11,12,13,21,22,23,24,24a-hexadecahydro-2H-pyrido[2,1-f]pyrido[2′,1′:2,3]imidazo[4,5-p][1]oxa[4,7,10,14]tetraazacycloheptadecine-11-carboxamide]	251	117
CC(C)C[C@H]1C(=O)N2CCCC[C@@H]2C(=O)N[C@H](Cc2ccccc2)COc2ccc3ncn(C)c3c2C(=O)N[C@H](C(=O)NCCc2c(F)cccc2F)CC(=O)N1C [Example 485, (8S,12S,18aR,21R)-21-benzyl-N-(2,6-difluorophenethyl)-12-isobutyl-5,11-dimethyl-6,10,13,19-tetraoxo-6,7,8,9,10,11,12,13,16,17,18,18a,19,20,21,22-hexadecahydro-5H,15H-imidazo[4′,5′:5,6]benzo[1,2-p]pyrido[2,1-f][1]oxa[4,7,10,14]tetraazacycloheptadecine-8-carboxamide]	238	204

More lines, now with the values ahead:

EC50 [nM]	Emax [%]	Compound
992	314	Cc1cc(CCNC(=O)[C@@H]2CC(=O)N(C)[C@@H](CC(C)C)C(=O)N3CCN(S(=O)(=O)c4cccnc4)C[C@@H]3C(=O)N[C@H](Cc3ccccc3)COc3ccc4ccccc4c3C(=O)N2)on1 [Example 475, (4aR,7R,18S,22S)-7-benzyl-22-isobutyl-21-methyl-N-(2-(3-methylisoxazol-5-yl)ethyl)-5,16,20,23-tetraoxo-3-(pyridin-3-ylsulfonyl)-2,3,4,4a,5,6,7,8,16,17,18,19,20,21,22,23-hexadecahydro-1H-naphtho[1,2-p]pyrazino[2,1-f][1]oxa[4,7,10,14]tetraazacycloheptadecine-18-carboxamide]
333	344	CC(C)C[C@H]1C(=O)N(C)C2(CC2)C(=O)N[C@H](Cc2ccccc2)COc2cnc3ccccc3c2C(=O)N[C@H](C(=O)NCCc2cc(C3CC3)no2)CC(=O)N1C [Example 476, (3′S,7′S,13′R)-13′-benzyl-N-(2-(3-cyclopropylisoxazol-5-yl)ethyl)-7′-isobutyl-6′,9′-dimethyl-1′,5′,8′,11′-tetraoxo-2′,3′,4′,5′,6′,7′,8′,9′,11′,12′,13′,14′-dodecahydro-1′H-spiro[cyclopropane-1,10′-[1]oxa[4,7,10,14]tetraazacycloheptadecino[17,16-c]quinoline]-3′-carboxamide]
754	327	COc1nccc2c1C(=O)N[C@H](C(=O)NCCc1cc(C)no1)CC(=O)N(C)[C@@H](CC(C)C)C(=O)N1CCCC[C@@H]1C(=O)N[C@H](Cc1ccccc1)CO2 [Example 477, (7S,11S,17aR,20R)-20-benzyl-11-isobutyl-4-methoxy-10-methyl-N-(2-(3-methylisoxazol-5-yl)ethyl)-5,9,12,18-tetraoxo-5,6,7,8,9,10,11,12,15,16,17,17a,18,19,20,21-hexadecahydro-14H-dipyrido[2,1-f:3′,4′-p][1]oxa[4,7,10,14]tetraazacycloheptadecine-7-carboxamide]
480	253	COc1cncc(S(=O)(=O)N2CCN3C(=O)[C@H](CC(C)C)N(C)C(=O)C[C@@H](C(=O)NCCc4cc(C)no4)NC(=O)c4c(ccc5ccccc45)OC[C@@H](Cc4ccccc4)NC(=O)[C@H]3C2)c1 [Example 479, (4aR,7R,18S,22S)-7-benzyl-22-isobutyl-3-((5-methoxypyridin-3-yl)sulfonyl)-21-methyl-N-(2-(3-methylisoxazol-5-yl)ethyl)-5,16,20,23-tetraoxo-2,3,4,4a,5,6,7,8,16,17,18,19,20,21,22,23-hexadecahydro-1H-naphtho[1,2-p]pyrazino[2,1-f][1]oxa[4,7,10,14]tetraazacycloheptadecine-18-carboxamide]
201	276	Cc1cc(CCNC(=O)[C@@H]2CC(=O)N(C)[C@@H](CC(C)C)C(=O)N3CCCC[C@@H]3C(=O)N[C@H](Cc3ccccc3)COc3cnc4ccc(F)cc4c3C(=O)N2)on1 [Example 480, (9S,13S,19aR,22R)-22-benzyl-5-fluoro-13-isobutyl-12-methyl-N-(2-(3-methylisoxazol-5-yl)ethyl)-7,11,14,20-tetraoxo-7,8,9,10,11,12,13,14,17,18,19,19a,20,21,22,23-hexadecahydro-16H-pyrido[2′,11:6,7][1]oxa[4,7,10,14]tetraazacycloheptadecino[17,16-c]quinoline-9-carboxamide]
448	225	CC(C)C[C@H]1C(=O)N2CCCC[C@@H]2C(=O)N[C@H](Cc2ccccc2)COc2cnc3ccc(F)cc3c2C(=O)N[C@H](C(=O)NCCc2ccc(-n3nccn3)cc2)CC(=O)N1C [Example 481, (9S,13S,19aR,22R)-N-(4-(2H-1,2,3-triazol-2-yl)phenethyl)-22-benzyl-5-fluoro-13-isobutyl-12-methyl-7,11,14,20-tetraoxo-7,8,9,10,11,12,13,14,17,18,19,19a,20,21,22,23-hexadecahydro-16H-pyrido[2′,1′:6,7][1]oxa[4,7,10,14]tetraazacycloheptadecino[17,16-c]quinoline-9-carboxamide]
